Measurements from paper PMC5849211 (Chemical Science, 2017).

Test system: Saos-2 cells
Experiment: MTT assay, Saos-2 cells
Type: cell-based, human
Settings: 0.5 mM levamisole, 3 h + 24 h, n = 3

SMILES: c1ccc([C@H]2CN3CCSC3=N2)cc1 [levamisole]
- cell viability, Saos-2, levamisole alone: no obvious effect on the cell viability alone
